Test results as given in patent publication EP0021678B1, “1-Sulpho-2-oxoazetidine derivatives, their production and pharmaceutical compositions thereof” (Takeda Chemical Industries, Ltd., priority 1979, dated 1981).
Where two headings read alike, the source gives them in different places.

Experiments:
Assay in all cases: Anti-bacterial test, minimum inhibitory concentration on agar
Format in all cases: cell-based
Klebsiella pneumoniae DT = settings: Klebsiella pneumoniae DT, medium TSA
Procedure, shortened: (§1)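 MIC determined on agar using trypticase soy agar (TSA) or blood trypticase soy agar (B-TSA) as media.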

[1] = system: Streptococcus pyogenes S—8; settings: Streptococcus pyogenes S—8, medium B—TSA
Procedure, shortened: as §1

[2] = system: Acinetobacter calcoaceticus IFO 13006; settings: Acinetobacter calcoaceticus IFO 13006, medium TSA
Procedure, shortened: as §1

[3] = system: Streptococcus pyogenes E—14; settings: Streptococcus pyogenes E—14, medium B—TSA
Procedure, shortened: as §1

[4] = system: Citrobacter freundii IFO 12681; settings: Citrobacter freundii IFO 12681, medium TSA
Procedure, shortened: as §1

[5] = system: Staphylococcus aureus FDA209P; settings: Staphylococcus aureus FDA209P; for MIC: Staphylococcus aureus, FDA209P, read-out: Minimum inhibitory concentration
Procedure, shortened: as §1

Candida albicans TA = settings: Candida albicans TA, medium TSA
Procedure, shortened: as §1

[6] = system: Streptococcus pneumoniae Type I; settings: Streptococcus pneumoniae Type I, medium B—TSA
Procedure, shortened: as §1

[7] = system: Corynebacterium diphtheriae Toronto; settings: Corynebacterium diphtheriae Toronto, medium B—TSA
Procedure, shortened: as §1

[8] = system: Streptococcus faecium IFO 3128; settings: Streptococcus faecium IFO 3128, medium B—TSA
Procedure, shortened: as §1

[9] = system: Staphylococcus aureus 308A—1; settings: Staphylococcus aureus 308A—1, medium TSA
Procedure, shortened: as §1

[10] = system: Serratia marcescens IFO 12648; settings: Serratia marcescens IFO 12648, medium TSA
Procedure, shortened: as §1

[11] = system: Proteus vulgaris IFO 3988; settings: Proteus vulgaris IFO 3988, medium TSA
Procedure, shortened: as §1

[12] = system: Streptococcus mitis America; settings: Streptococcus mitis America, medium B—TSA
Procedure, shortened: as §1

[13] = system: Proteus mirabilis IFO 3849; settings: Proteus mirabilis IFO 3849, medium TSA
Procedure, shortened: as §1

Escherichia coli O—111 = settings: medium TSA
Procedure, shortened: as §1

[14] = system: Enterobacter cloacae IFO 12937; settings: Enterobacter cloacae IFO 12937, medium TSA
Procedure, shortened: as §1

[15] = system: Bordetella bronchiseptica Sagami; settings: Bordetella bronchiseptica Sagami, medium B—TSA
Procedure, shortened: as §1

[16] = system: Pseudomonas aeruginosa U 31; settings: Pseudomonas aeruginosa U 31, medium TSA
Procedure, shortened: as §1

Escherichia coli T-7 = system: Escherichia coli T-7
Procedure, shortened: as §1

[17] = system: Proteus morganii IFO 3168; settings: Proteus morganii IFO 3168, medium TSA
Procedure, shortened: as §1

[18] = system: Pseudomonas aeruginosa IFO 3455; settings: Pseudomonas aeruginosa IFO 3455, medium TSA
Procedure, shortened: as §1

[19] = system: Staphylococcus aureus 1840; settings: Staphylococcus aureus 1840, medium TSA
Procedure, shortened: as §1

[20] = system: Escherichia coli NIHJ JC—2; settings: Escherichia coli NIHJ JC—2, medium TSA
Procedure, shortened: as §1

[21] = read-out: Minimum inhibitory concentration

Compound `CCN1CCN(C(=O)N[C@@H](C(=O)NC2CN(S(=O)(=O)O)C2=O)c2ccccc2)C(=O)C1=O` (single isomer, unassigned) [Compound B, Sodium 3-[D(-)-N-(4-ethyl-2,3-dioxo-1-piperazinocarbonyl)-phenyl-glycin-amido]-2-oxoazetidine-1-sulphonate] has an MIC (Klebsiella pneumoniae DT; [21]) of 0.2 µg/mL, an MIC [1, 21] of 6.25 µg/mL and an MIC ([2]; IFO13006, read-out: Minimum inhibitory concentration) of 25 µg/mL. For the same compound, the MIC [3, 21] was 3.13 µg/mL, the MIC ([4]; IFO12681, read-out: Minimum inhibitory concentration) was 6.25 µg/mL and the MIC ([5]; medium B—TSA) was 6.25 µg/mL. For the same compound, the MIC ([5]; medium TSA) was 6.25 µg/mL, the MIC (Candida albicans TA; [21]) was > 100 µg/mL and the MIC [6, 21] was 6.25 µg/mL. The MIC [7, 21] was 3.13 µg/mL, the MIC ([8]; Enterococcus faecium, IFO3128, read-out: Minimum inhibitory concentration) was > 100 µg/mL and the MIC [9, 21] was 3.13 µg/mL. The MIC ([10]; IFO12648, read-out: Minimum inhibitory concentration) was 3.13 µg/mL, the MIC ([11]; IFO3988, read-out: Minimum inhibitory concentration) was 0.1 µg/mL and the MIC [12, 21] was 25 µg/mL. The MIC ([13]; IFO3849, read-out: Minimum inhibitory concentration) was 0.78 µg/mL, the MIC (Escherichia coli O—111) was 0.2 µg/mL and the MIC ([14]; IFO12937, read-out: Minimum inhibitory concentration) was 50 µg/mL. For the same compound, the MIC [15, 21] was > 100 µg/mL, the MIC ([16]; U31, read-out: Minimum inhibitory concentration) was > 100 µg/mL and the MIC (Escherichia coli T-7; T7, medium TSA) was > 100 µg/mL. It also gave an MIC ([17]; Morganella morganii, IFO3168, read-out: Minimum inhibitory concentration) of 25 µg/mL, an MIC ([18]; IFO3455, read-out: Minimum inhibitory concentration) of 1.56 µg/mL and an MIC [19, 21] of 25 µg/mL. For the same compound, the MIC [20, 21] was 1.56 µg/mL.
Compound `CCN1CCN(C(=O)NC(C(=O)NC2CN(S(=O)(=O)[O-])C2=O)c2cccs2)C(=O)C1=O.[Na+]` (racemic) [Compound E, Sodium 3-[DL-2-(4-ethyl-2,3-dioxo-1-piperazinocarboxamido)-2-thienylacetamido]-2-oxoazetidine-1-sulphonate] has a Minimum inhibitory concentration (Klebsiella pneumoniae DT) of 0.78 µg/mL, a Minimum inhibitory concentration [1] of 3.13 µg/mL and a Minimum inhibitory concentration [2] of 50 µg/mL. For the same compound, the Minimum inhibitory concentration [3] was 1.56 µg/mL, the Minimum inhibitory concentration [4] was 3.13 µg/mL and the Minimum inhibitory concentration ([5]; medium B—TSA) was 6.25 µg/mL. The Minimum inhibitory concentration ([5]; medium TSA) was 6.25 µg/mL, the Minimum inhibitory concentration (Candida albicans TA) was >100 µg/mL and the Minimum inhibitory concentration [6] was 3.13 µg/mL. For the same compound, the Minimum inhibitory concentration [7] was 0.39 µg/mL, the Minimum inhibitory concentration [8] was >100 µg/mL and the Minimum inhibitory concentration [9] was 6.25 µg/mL. The Minimum inhibitory concentration [10] was 3.13 µg/mL, the Minimum inhibitory concentration [11] was <0.1 µg/mL and the Minimum inhibitory concentration [12] was 25 µg/mL. The Minimum inhibitory concentration [13] was 0.78 µg/mL, the Minimum inhibitory concentration (Escherichia coli O—111) was 0.2 µg/mL and the Minimum inhibitory concentration [14] was 3.13 µg/mL. The Minimum inhibitory concentration [15] was >100 µg/mL, the Minimum inhibitory concentration [16] was >100 µg/mL and the Minimum inhibitory concentration (Escherichia coli T-7; medium TSA) was >100 µg/mL. It also gave a Minimum inhibitory concentration [17] of 12.5 µg/mL, a Minimum inhibitory concentration [18] of 3.13 µg/mL and a Minimum inhibitory concentration [19] of 25 µg/mL. It also gave a Minimum inhibitory concentration [20] of 1.56 µg/mL.
